According to patent US9980986B2, “Methods of producing pancreatic hormones” (ViaCyte, Inc., priority 2006, dated 2018):

B1: Wnt3a: wingless-type MMTV integration site family member 3A (protein, UniProt P56704 19-352, looked up)
Protein Wnt-3a: SYPIWWSLAVGPQYSSLGSQPILCASIPGLVPKQLRFCRNYVEIMPSVAEGIKIGIQECQHQFRGRRWNCTTVHDSLAIFGPVLDKATRESAFVHAIASAGVAFAVTRSCAEGTAAICGCSSRHQGSPGKGWKWGGCSEDIEFGGMVSREFADARENRPDARSAMNRHNNEAGRQAIASHMHLKCKCHGLSGSCEVKTCWWSQPDFRAIGDFLKDKYDSASEMVVEKHRESRGWVETLRPRYTYFKVPTERDLVYYEASPNFCEPNPETGSFGTRDRTCNVSSHGIDGCDLLCCGRGHNARAERRREKCRCVFHWCCYVSCQECTRVYDVHTCK

What was measured:
[1] = test system: activin receptor-like (ALK) receptor; assay: TGF-beta receptor family inhibitor added to cell cultures at stage 2 of differentiation; type: cell-based, human; conditions: about 2.5, 5 and 10 μM added to the cell cultures at stage 2
Source text: The differentiation culture conditions were substantially similar to that described in d'Amour et al. 2006. d'Amour et al. 2006 describe a 5 step differentiation protocol: stage 1 (definitive endoderm; d 1-d 4), stage 2 (primitive gut tube or foregut endoderm; d 5 to d 8), stage 3 (posterior foregut or Pdx1 endoderm; d 9 to d 12), stage 4 (pancreatic endoderm, or pancreatic epithelium and endocrine precursor; d 13 to d 15) and stage 5 (hormone expressing endocrine cell, d 16 or more). As in d'Amour et al. 2006, the undifferentiated cells were cultured for one day (d 1) in RPMI containing 100 ng/ml Activin A (R&D Systems) and 25 ng/ml recombinant human WNT3a (R&D Systems), two days (d 2 and d 3) in RPMI medium containing 0.2% fetal bovine serum (FBS, Specialty Media) and 100 ng/ml Activin A. The embodiments described herein were slightly modified beginning at day 3 (d 3). The cells from day 3 (definitive endoderm) were cultured for three days (d 4 to d 6; foregut endoderm) in RPMI medium containing 2% FBS, 50 ng/ml recombinant human KGF/FGF7 (R&D Systems), and 0.25 μM KAAD-cyclopamine (Toronto Research Chemicals). Activin is removed from cells at this stage. […]

[2] = test system: Human embryonic stem cell lines; assay: hESC differentiation by 6-step 15-day protocol with or without Wnt3a in step 1, real-time quantitative PCR; type: cell-based; conditions: Wnt3a 25 ng/mL added during the first step
Experimental: Human embryonic stem cell lines were also differentiated for 15 days via a 6-step protocol to achieve islet hormone-expressing cells. The first step comprised 3 days differentiation with either; i) activin A (100 ng/ml) or ii) activin A (100 ng/ml) and Wnt3a (25 ng/mL) to robustly produce DE (D'Amour, K., et al., Nature Biotechnology 23, 1534-1541, (2005)). Step 2 comprised 3 days differentiation in RPMI with 2% FBS containing FGF10 (50 ng/mL) and KAAD-cyclopamine (0.5 μM). Step 3 comprised 2 days differentiation in CMRL with B27 supplement (1:100) containing FGF10 (50 ng/mL), KAAD-cyclopamine (0.5 μM) and retinoic acid (2 μM). Step 4 comprised 2 days differentiation in CMRL with B27 supplement (1:100) containing retinoic acid (2 μM) and DAPT (1 μM). Step 5 comprised 2 days differentiation in CMRL with B27 supplement (1:100) containing DAPT (1 μM) and exendin 4 (40 ng/mL). Step 6 comprised 3 days differentiation in CMRL with B27 supplement (1:100) containing exendin 4 (40 ng/mL). Duplicate samples were taken from each plate at multiple time points and gene expression was analyzed by real-time quantitative PCR.

Molecule | Effect on cell differentiation [1] | Effect on endocrine cell differentiation [2]
NC(=O)c1ccc(-c2nc(-c3ccc4c(c3)OCO4)c(-c3ccccn3)[nH]2)cc1 [SB-431542] | potentiated cell differentiation | 
B1 |  | marked enhancement of endocrine cell differentiation
